Laboratory results from patent US10173991B2, “Sulfone amide linked benzothiazole inhibitors of endothelial lipase” (BRISTOL-MYERS SQUIBB COMPANY, priority 2014, dated 2019).

target: Endothelial lipase (EL) (Homo sapiens (Human), UniProt Q9Y5X9); experiment: Endothelial lipase (EL) enzymatic assay with fluorescent substrate A10070 in DMPG vesicles; type: biochemical; details: not given
How it was run: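 Compounds were preincubated with enzyme for 30 min at 37° C before FRET-substrate vesicles (A10070 in DMPG, 0.11 mole fraction) were added. Reaction rates were obtained from the 300–900 sec slope of fluorescence at 490/530 nm.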

Sequence of Endothelial lipase (EL) (Q9Y5X9 21-500): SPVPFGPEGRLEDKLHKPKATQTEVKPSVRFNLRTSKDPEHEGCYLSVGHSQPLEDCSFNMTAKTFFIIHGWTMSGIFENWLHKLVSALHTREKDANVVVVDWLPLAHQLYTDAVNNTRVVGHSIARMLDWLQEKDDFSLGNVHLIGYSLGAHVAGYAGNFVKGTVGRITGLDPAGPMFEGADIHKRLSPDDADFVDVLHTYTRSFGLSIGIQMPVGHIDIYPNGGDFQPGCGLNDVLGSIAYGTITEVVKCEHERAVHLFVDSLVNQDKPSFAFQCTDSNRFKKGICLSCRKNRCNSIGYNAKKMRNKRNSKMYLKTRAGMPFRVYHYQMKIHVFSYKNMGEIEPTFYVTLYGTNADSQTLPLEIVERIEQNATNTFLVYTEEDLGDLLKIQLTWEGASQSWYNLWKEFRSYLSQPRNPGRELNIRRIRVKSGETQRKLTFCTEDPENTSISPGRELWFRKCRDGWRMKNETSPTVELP

IC50 [nM] | Compound
85 | COCCS(=O)(=O)C(C(=O)NCC(=O)NC1CC1)c1nc2cc(-c3cccnc3)ccc2s1 (stereo not shown) [Example 85, N-[(cyclopropyl-carbamoyl)methyl]-2-(2-methoxyethane-sulfonyl)-2-[5-(pyridin-3-yl)-1,3-benzothiazol-2-yl]acetamide]
73 | COc1cc(-c2ccc3nc(C(C(=O)NCC(=O)NC4CC4)S(=O)(=O)c4ccc(F)cc4)sc3c2)ccn1 (stereo not shown) [Example 454, N-[(cyclopropyl-carbamoyl)methyl]-2-(4-fluorobenzene-sulfonyl)-2-[6-(2-methoxypyridin-4-yl)-1,3-benzothiazol-2-yl]acetamide]
48 | COCCS(=O)(=O)C(C(=O)NCC(=O)NC1(c2ccccn2)CC1)c1nc2ccc(-c3ccc(F)nc3)cc2s1 (stereo not shown) [Example 388, 2-[6-(6-fluoropyridin-3-yl)-1,3-benzothiazol-2-yl]-2-(2-methoxyethane-sulfonyl)-N-({[1-(pyridin-2-yl)cyclopropyl]carbamoyl}methyl) acetamide]
10 | Cc1ccc(-c2cc3nc(C(C(=O)NCC(=O)NC4CC4)S(=O)(=O)C(C)C)sc3cc2F)cn1 (stereo not shown) [Example 262, N-[(cyclopropyl-carbamoyl)methyl]-2-[6-fluoro-5-(6-methylpyridin-3-yl)-1,3-benzothiazol-2-yl]-2-(propane-2-sulfonyl)acetamide]
53 | COCCNC(=O)c1ccc(-c2ccc3nc(C(C(=O)NCC(=O)NC4CC4)S(C)(=O)=O)sc3c2)cc1OC (stereo not shown) [Example 410, 4-[2-({[(cyclopropyl-carbamoyl)methyl]carbamoyl} (methanesulfonyl)methyl)-1,3-benzothiazol-6-yl]-2-methoxy-N-(2-methoxyethyl) benzamide]
52 | CN(C)S(=O)(=O)C(C(=O)NCC(=O)NC1CC1)c1nc2cc(F)c(-c3cccc(-n4cccn4)c3)cc2s1 (stereo not shown) [Example 506, N-[(cyclopropyl-carbamoyl)methyl]-2-(dimethyl-sulfamoyl)-2-{5-fluoro-6-[3-(1H-pyrazol-1-yl)phenyl]-1,3-benzothiazol-2-yl} acetamide]
16 | O=C(CNC(=O)C(c1nc2ccc(-c3ccc(F)nc3)cc2s1)S(=O)(=O)Cc1ccc(C(F)(F)F)cc1)NC1CC1 (stereo not shown) [Example 512, N-[(cyclopropyl-carbamoyl)methyl]-2-[6-(6-fluoropyridin-3-yl)-1,3-benzothiazol-2-yl]-2-{[4-(trifluoromethyl)phenyl]methanesulfonyl} acetamide]
37 | COCCS(=O)(=O)C(C(=O)NCC(=O)NC1CC1)c1nc2cc(C(F)(F)F)c(-c3ccc(=O)n(C(C)C)c3)cc2s1 (stereo not shown) [Example 188, N-[(cyclopropyl-carbamoyl)methyl]-2-(2-methoxyethane-sulfonyl)-2-{6-[6-oxo-1-(propan-2-yl)-1,6-dihydropyridin-3-yl]-5-(trifluoromethyl)-1,3-benzothiazol-2-yl}acetamide]
13 | O=C(CNC(=O)C(c1nc2cc(-c3ccc(F)nc3)ccc2s1)S(=O)(=O)c1ccccc1)NC1CC1 (stereo not shown) [Example 437, 2-(benzenesulfonyl)-N-[(cyclopropyl-carbamoyl)methyl]-2-[5-(6-fluoropyridin-3-yl)-1,3-benzothiazol-2-yl] acetamide]
4 | COC(=O)Nc1ccc(-c2cc3nc(C(C(=O)NCC(=O)NC4CC4)S(C)(=O)=O)sc3cc2F)cc1 (stereo not shown) [Example 114, methyl N-{4-[2-({[(cyclopropyl-carbamoyl)methyl]caramoyl} (methanesulfonyl)methyl)-6-fluoro-1,3-benzothiazol-5-yl]phenyl} carbamate]
15 | COCCNC(=O)c1ccc(-c2ccc3sc(C(C(=O)NCC(=O)NC4CC4)S(=O)(=O)CCOC)nc3c2)cc1 (stereo not shown) [Example 334, 4-[2-({[(cyclopropyl-carbamoyl)methyl]carbamoyl}(2-methoxyethane-sulfonyl)methyl)-1,3-benzothiazol-5-yl]-N-(2-methoxyethyl) benzamide]
13 | COCCS(=O)(=O)C(C(=O)NCC(=O)NC1COC1)c1nc2ccc(-c3ccc(F)nc3)cc2s1 (stereo not shown) [Example 384, 2-[6-(6-fluoropyridin-3-yl)-1,3-benzothiazol-2-yl]-2-(2-methoxyethane-sulfonyl)-N-{[(oxetan-3-yl)carbamoyl]methyl} acetamide]
9 | Cc1ccc(-c2cc3sc(C(C(=O)NCC(=O)NC4CC4)S(C)(=O)=O)nc3cc2F)cn1 (stereo not shown) [Example 191, N-[(cyclopropyl-carbamoyl)methyl]-2-[5-fluoro-6-(6-methylpyridin-3-yl)-1,3-benzothiazol-2-yl]-2-methanesulfonyl-acetamide]
3 | COCCS(=O)(=O)C(C(=O)NCC(=O)NC1CC1)c1nc2cc(F)c(-c3ccc(C(=O)NCCc4ccccc4)cc3)cc2s1 (stereo not shown) [Example 573, 4-[2-({[(cyclopropyl-carbamoyl)methyl]carbamoyl}(2-methoxyethane-sulfonyl)methyl)-5-fluoro-1,3-benzothiazol-6-yl]-N-(2-phenylethyl) benzamide]
7 | O=C(CNC(=O)C(c1nc2ccc(-c3ccc4c(c3)CN(C3CC3)C4=O)cc2s1)S(=O)(=O)c1ccc(F)cc1)NC1CC1 (stereo not shown) [Example 597, 2-[6-(2-cyclopropyl-1-oxo-2,3-dihydro-1H-isoindol-5-yl)-1,3-benzothiazol-2-yl]-N-[(cyclopropyl-carbamoyl)methyl]-2-(4-fluorobenzene-sulfonyl)acetamide]
14 | CS(=O)(=O)C(C(=O)NCC(=O)NC1CC1)c1nc2cc(F)c(-c3ccnc(F)c3)cc2s1 (stereo not shown) [Example 321, N-[(cyclopropyl-carbamoyl)methyl]-2-[5-fluoro-6-(2-fluoropyridin-4-yl)-1,3-benzothiazol-2-yl]-2-methanesulfonyl-acetamide]
5 | COCCS(=O)(=O)C(C(=O)NCC(=O)NC1CC1)c1nc2cc(-c3cncc(Cl)c3)ccc2s1 (stereo not shown) [Example 62]
6 | CS(=O)(=O)C(C(=O)NCC(=O)NC1CC1)c1nc2cc(F)c(-c3ccc4c(c3)NC(=O)C4)cc2s1 (stereo not shown) [Example 372, N-[(cyclopropyl-carbamoyl)methyl]-2-[5-fluoro-6-(2-oxo-2,3-dihydro-1H-indol-6-yl)-1,3-benzothiazol-2-yl]-2-methanesulfonyl-acetamide]
12 | COCCS(=O)(=O)C(C(=O)NCC(=O)NC1CC1)c1nc2cc(-c3cccc(-c4cc[nH]n4)c3)c(F)cc2s1 (stereo not shown) [Example 129, N-[(cyclopropyl-carbamoyl)methyl]-2-{6-fluoro-5-[3-(1H-pyrazol-3-yl)phenyl]-1,3-benzothiazol-2-yl}-2-(2-methoxyethane-sulfonyl) acetamide]
5 | NC(=O)Nc1ccc(-c2cc3sc(C(C(=O)NCC(=O)NC4CC4)S(=O)(=O)CCC(F)(F)F)nc3cc2F)cc1 (stereo not shown) [Example 7, 2-{6-[4-(carbamoyl-amino)phenyl]-5-fluoro-1,3-benzothiazol-2-yl}-N-[(cyclopropyl-carbamoyl)methyl]-2-(3,3,3-trifluoropropane-sulfonyl) acetamide]
2 | N#CCS(=O)(=O)C(C(=O)NCC(=O)NC1CC1)c1nc2cc(F)c(-c3ccc(NC(=O)OCc4ccccc4)cc3)cc2s1 (stereo not shown) [Example 47, benzyl N-(4-{2-[(cyanomethane-sulfonyl) ({[(cyclopropyl-carbamoyl)methyl]carbamoyl}methyl]-5-fluoro-1,3-benzothiazol-6-yl}phenyl) carbamate]
24 | COCCS(=O)(=O)C(C(=O)NCC(=O)NC1CC1)c1nc2ccc(-c3ccc(C(=O)N4CC[C@@H](OC)C4)cc3)cc2s1 (stereo partly drawn) [Example 407, N-[(cyclopropyl-carbamoyl)methyl]-2-(2-methoxyethane-sulfonyl)-2-(6-{4-[(3R)-3-methoxy-pyrrolidine-1-carbonyl]phenyl}-1,3-benzothiazol-2-yl)acetamide]
1 | O=C(CNC(=O)C(c1nc2cc(F)c(-c3cccc(NC(=O)OCc4ccccc4)c3)cc2s1)S(=O)(=O)CCC(F)(F)F)NC1CC1 (stereo not shown) [Example 553, benzyl N-{3-[2-({[(cyclopropyl-carbamoyl)methyl]carbamoyl}(3,3,3-trifluoropropane-sulfonyl)methyl)-5-fluoro-1,3-benzothiazol-6-yl]phenyl} carbamate]
69 | COCCS(=O)(=O)C(C(=O)NCC(=O)NC1CC1)c1nc2cc(C(=O)N3CC(C)(OC)C3)c(F)cc2s1 (stereo not shown) [Example 429, N-[(cyclopropyl-carbamoyl)methyl]-2-[6-fluoro-5-(3-methoxy-3-methylazetidine-1-carbonyl)-1,3-benzothiazol-2-yl}-2-(2-methoxyethane-sulfonyl)acetamide]
1 | CC(C)OC(=O)Nc1ccc(-c2cc3sc(C(C(=O)NCC(=O)NC4CC4)S(C)(=O)=O)nc3cc2F)cc1 (stereo not shown) [Example 539, propan-2-yl N-{4-[2-({[(cyclopropyl-carbamoyl)methyl]carbamoyl} (methanesulfonyl)methyl)-5-fluoro-1,3-benzothiazol-6-yl]phenyl} carbamate]

same assay, conditions: EL from conditioned media of HT-1080 cells; 30 min preincubation at 37° C.

IC50 [nM] | Compound
280 | O=C(CNC(=O)C(c1nc2ccc(-c3ccc(F)nc3)cc2s1)S(=O)(=O)CCO)NC1CC1 (stereo not shown) [Example 509, N-[(Cyclopropylcarbamoyl)methyl]-2-[6-(6-fluoropyridin-3-yl)-1,3-benzothiazol-2-yl]-2-(2-hydroxyethanesulfonyl)acetamide]
4 | COCCNC(=O)c1ccc(-c2ccc3nc(C(C(=O)NCC(=O)NC4CC4)S(=O)(=O)N4CCOCC4)sc3c2)cc1 (stereo not shown) [Example 480, 4-[2-({[(Cyclopropylcarbamoyl)methyl]carbamoyl}(morpholine-4-sulfonyl)methyl)-1,3-benzothiazol-6-yl]-N-(2-methoxyethyl)benzamide]
5.5 | COCCS(=O)(=O)C(C(=O)NCC(=O)NC1CC1)c1nc2ccc(-c3ccc(C(=O)NCC(C)(C)COC)cc3)cc2s1 (stereo not shown) [Example 559, 4-(2-(2-((2-(Cyclopropylamino)-2-oxoethyl)amino)-1-((2-methoxyethyl)sulfonyl)-2-oxoethyl)benzo[d]thiazol-6-yl)-N-(3-methoxy-2,2-dimethylpropyl)benzamide]
